{"source": "patent US8388960B2", "about": "“Elimination of heterogeneous or mixed cell population in tumors” (priority 2005, dated 2013)", "key": {"[1]": {"system": "antigen-positive COLO 205 cells", "assay": "MTT-based cytotoxicity assay, COLO 205 cells (Example 2)", "type": "cell-based, human", "conditions": "conjugates 4-day exposure", "protocol": "(§1) The anti-tumor activity of the two conjugates was assessed in SCID mice bearing subcutaneous HT-29 or COLO 205 tumors (both CanAg-positive human colon adenocarcinoma).\n(§2) The two major metabolites, S-methyl-DM4 and lysine-N^ε—SMCC-DM1, were synthesized and tested for their in vitro cytotoxicity against COLO 205 cells and Namalwa cells."}, "[2]": {"system": "antigen-negative Namalwa cells", "assay": "MTT-based cytotoxicity assay, Namalwa cells (Example 2)", "type": "cell-based, human", "conditions": "free maytansinoids", "protocol": "as §1, §2"}, "[3]": {"conditions": "single intravenous dose of 12.5 μg/kg; cited from earlier work"}, "COLO 205 cells": {"system": "COLO 205 cells", "assay": "Cell cycle studies (G2/M arrest, DNA content by FACS) in COLO 205 cells", "type": "cell-based, human", "experimental": "Exponentially growing COLO 205 cells were resuspended at 1-2×10^5 cells/mL before drug or conjugate treatment. […] DNA content analysis was performed using FACSCalibur (Becton Dickinson, San Jose, Calif.). 10,000 events per sample were collected, and FL2-A histograms generated for each sample. The cell cycle analysis software, ModFit LT 3.1 (Verity Software House, Topsham, Me.) was used to determine the percentage of cells in different phases of the cell cycle.\nSamples of asynchronously growing cells were exposed to conjugate (3 nM), or DM1-SMe (10 nM see FIG. 16 for structure), or nocodazole (0.66 μM) another inhibitor of microtubule polymerization, at 37° C. for 20 h and the DNA content of the cells was then analyzed by flow cytometry.\nCOLO 205 cells were first synchronized with a 24-hr treatment of aphidicolin, a reversible DNA replication inhibitor that blocks cells in S phase (Ikegami S. et al., Nature, 275, 458-460 ((1978)). Since the majority of the asynchronous population of COLO 205 cells were in G1 phase, most of the aphidicolin-treated cells arrested in the beginning of S phase, which cannot be distinguished from G1 phase in the FACS analysis (FIG. 11B, top picture). The synchronized cells were then released from the arrest by the removal of aphidicolin, and either left untreated, or treated with DM1-SMe or with either conjugate."}, "[4]": {"assay": "Thiol-disulfide interchange of DM4 in RPMI 1640 medium", "conditions": "buffer", "experimental": "To further test whether any of the metabolites in the media was a disulfide compound, a cell supernatant sample from a 26-hour exposure was divided into two equal portions of which one was subjected directly to chromatography, and the other portion was treated with DTT and selenol before chromatography to reduce all disulfide bonds (18)."}}}
{"compound": "COc1cc2cc(c1Cl)N(C)C(=O)C[C@H](OC(=O)[C@H](C)N(C)C(=O)CCC(C)(C)SC)[C@]1(C)O[C@H]1[C@H](C)[C@@H]1C[C@@](O)(NC(=O)O1)[C@H](OC)/C=C/C=C(\\C)C2", "note": "[S-methyl-DM4, N^2′-deacetyl-N^2′-(4-methylthio-4-methyl-1-oxopentyl)-maytansine]", "values": [{"measurement": "IC50", "setting": "[1]", "result": 0.002, "unit": "nM"}, {"measurement": "IC50", "setting": "[2]", "result": 0.002, "unit": "nM"}]}
{"compound": "COc1c(O)c2c(c3cc(C(=O)N4CCc5c4c(O)c(OC)c4[nH]c(C(=O)N6CC7CC78C6=CC(=O)c6[nH]cc(C)c68)cc54)[nH]c13)CCN2C(N)=O", "note": "(stereo not drawn) [CC-1065]", "values": [{"measurement": "toxicity after administration to mice", "setting": "[3]", "result": "delayed hepatotoxicity leading to mortality on day 50"}]}
{"compound": "CO/C1=C\\C(C)=C\\[C@@H](C)[C@@H](O)[C@@H](C)C/C(C)=C/C=C/[C@H](OC)[C@@H]([C@@H](C)[C@@H](O)[C@H](C)[C@@]2(O)C[C@@H](O)[C@H](C)[C@@H](C(C)C)O2)OC1=O", "note": "[BafA1, Bafilomycin A1, reference compound]", "values": [{"measurement": "distribution of cells between the phases of the cell cycle", "setting": "COLO 205 cells; BafA1 alone", "result": "did not significantly alter the distribution of cells"}]}
{"compound": "COc1cc2cc(c1Cl)N(C)C(=O)C[C@H](OC(=O)[C@H](C)N(C)C(C)=O)[C@]1(C)O[C@H]1[C@H](C)[C@@H]1C[C@@](O)(NC(=O)O1)[C@H](OC)/C=C/C=C(\\C)C2", "note": "[maytansine, reference compound]", "values": [{"measurement": "IC50", "setting": "[1]; Homo sapiens, COLO 205, 96 h", "result": "0.03 to 0.06", "unit": "nM"}, {"measurement": "IC50", "setting": "[2]; Homo sapiens", "result": "0.03 to 0.06", "unit": "nM"}]}
{"compound": "COc1cc2cc(c1Cl)N(C)C(=O)CC(OC(=O)C(C)N(C)C(=O)CCC(C)(C)S)C1(C)OC1C(C)C1CC(O)(NC(=O)O1)C(OC)/C=C/C=C(\\C)C2", "note": "(stereo not drawn) [DM4, N^2′-deacetyl-N-^2′(4-methyl-4-mercapto-1-oxopentyl)-maytansine]", "values": [{"measurement": "half-life", "setting": "[4]", "result": "< 60", "unit": "min"}]}
{"compound": "COc1cc2cc(c1Cl)N(C)C(=O)C[C@H](OC(=O)[C@H](C)N(C)C(=O)CCSSC)[C@]1(C)O[C@H]1[C@H](C)[C@@H]1C[C@@](O)(NC(=O)O1)[C@H](OC)/C=C/C=C(\\C)C2", "note": "[DM1-SMe, N^2′-deacetyl-N^2′-[(3-methyldithio)-1-oxopropyl]-maytansine]", "values": [{"measurement": "cells in G2 in the presence of chloroquine", "setting": "COLO 205 cells; 20 h, 30 μM chloroquine, 10^−8 M DM1-SMe, 3×10^−9 M huC242-SMCC-DM1", "result": 51, "unit": "%"}, {"measurement": "cells in G2/M phase after release from aphidicolin", "setting": "COLO 205 cells; synchronized cells, after 10 h and after 18 h", "result": "75% to 85%"}]}
